Test results published in ChEMBL document CHEMBL3124860, “Fragment-based identification of amides derived from trans-2-(pyridin-3-yl)cyclopropanecarboxylic acid as potent inhibitors of human nicotinamide phosphoribosyltransferase (NAMPT)” (J Med Chem, 2014).
Converted amounts (≈) assume the structure as drawn.

Columns and labels:
[1] = Clearance in human liver microsomes at 1 uM up to 60 mins by LC-MS/MS analysis; format: ADME
[2] = physchem; details: buffer
[3] = Clearance in CD-1 mouse liver microsomes at 1 uM up to 60 mins by LC-MS/MS analysis; format: ADME, Microsome
[4] = in vitro; details: dog, MDCK
[5] = AUC (0 to last) in NCR nude mouse at 10 mg/kg, po bid after 24 hrs; format: ADME, organism-based; parameters: time 0 - last, dose 10 mg/kg, route oral; details: plasma
[6] = Clearance in CD-1 mouse hepatocytes at 1 uM up to 3 hrs by LC-MS/MS analysis; format: ADME, cell-based, Hepatocyte
[7] = Cmax in NCR nude mouse at 10 mg/kg, po bid after 24 hrs; format: ADME, organism-based; parameters: dose 10 mg/kg, route oral; details: in vivo
[8] = buffer, 24 h

CLhep predicted at 1 µM [1] [mL/min/kg] | solubility at 24 h [2] [µM] | SMILES | further results
5 | 99 (≈ 37.9 µg/mL) | Nc1ccc(CNC(=O)Nc2ccc(S(=O)(=O)c3ccccc3)cc2)cn1 | 
13 | 16 (≈ 6.57 µg/mL) | CCCn1cc(S(=O)(=O)c2ccc(NC(=O)[C@H]3C[C@@H]3c3cccnc3)cc2)cn1 | CLhep predicted at 1 µM [3]: 79 mL/min/kg; Papp A→B at 10 µM [4]: 7.1 ×10⁻⁶ cm/s; AUC(0-t) at 24 h [5]: 126 µM·h; CLhep predicted at 1 µM [6]: 75 mL/min/kg; Cmax [7]: 34.6 µM
12 | 59 (≈ 24.2 µg/mL) | CC(C)n1cc(S(=O)(=O)c2ccc(NC(=O)[C@@H]3C[C@H]3c3cccnc3)cc2)cn1 | 
11 | 77 (≈ 31.6 µg/mL) | CC(C)n1cc(S(=O)(=O)c2ccc(NC(=O)[C@H]3C[C@@H]3c3cccnc3)cc2)cn1 | CLhep predicted at 1 µM [3]: 80 mL/min/kg; Papp A→B at 10 µM [4]: 9.7 ×10⁻⁶ cm/s; CLhep predicted at 1 µM [6]: 76 mL/min/kg
6 | 1 (≈ 0.428 µg/mL) | O=S1(=O)N=C(NCc2ccc(S(=O)(=O)c3ccccc3)cc2)Nc2ccncc21 | Papp A→B at 10 µM [4]: 0.8 ×10⁻⁶ cm/s
8 | 104 (≈ 52.5 µg/mL) | O=S1(=O)NC(NCc2ccc(S(=O)(=O)N3CCC(N4CCCC4)CC3)cc2)=Nc2ccncc21 | Papp A→B at 10 µM [4]: 0.1 ×10⁻⁶ cm/s
16 |  | O=C(Nc1ccc(S(=O)(=O)N2CC3CCC(C2)O3)cc1)[C@@H]1C[C@H]1c1cccnc1 (mixture of isomers) | 
18 | 165 (≈ 59 µg/mL) | CC(C)(C)OC(=O)N1C[C@@H]2CCN(C(=O)[C@@H]3C[C@H]3c3cccnc3)[C@@H]2C1 (racemic) | 
16 | 1 (≈ 0.425 µg/mL) | Cc1nn(C(C)C)cc1S(=O)(=O)c1ccc(NC(=O)[C@@H]2C[C@H]2c2cccnc2)cc1 (racemic) | 
15 |  | O=C(Nc1ccc(S(=O)(=O)c2cnn(C3CCOCC3)c2)cc1)[C@@H]1C[C@H]1c1cccnc1 (racemic) | CLhep predicted at 1 µM [3]: 77 mL/min/kg; CLhep predicted at 1 µM [6]: 51 mL/min/kg
18 | 165 (≈ 59 µg/mL) | CC(C)(C)OC(=O)N1C[C@H]2CCN(C(=O)[C@@H]3C[C@H]3c3cccnc3)[C@H]2C1 (racemic) | 
19 | 223 (≈ 90.4 µg/mL) | O=C(NCCCCC1CCN(C(=O)c2ccccc2)CC1)[C@@H]1C[C@H]1c1cccnc1 (racemic) | 
19 | 13 (≈ 4.85 µg/mL) | O=C(NCCCCCCOc1ccc(Cl)cc1)[C@@H]1C[C@H]1c1cccnc1 (racemic) | 
10 | 6 (≈ 2.36 µg/mL) | Cc1ccc(S(=O)(=O)c2ccc(NC(=O)[C@@H]3C[C@H]3c3cccnc3)cc2)cn1 (racemic) | 
9 | 1 (≈ 0.457 µg/mL) | CS(=O)(=O)c1cccc(S(=O)(=O)c2ccc(NC(=O)[C@@H]3C[C@H]3c3cccnc3)cc2)c1 (racemic) | CLhep predicted at 1 µM [3]: 74 mL/min/kg; Papp A→B at 10 µM [4]: 2.7 ×10⁻⁶ cm/s; CLhep predicted at 1 µM [6]: 54 mL/min/kg
10 | 1 (≈ 0.462 µg/mL) | O=C(Nc1ccc(S(=O)(=O)c2cccc(OC(F)(F)F)c2)cc1)[C@@H]1C[C@H]1c1cccnc1 (racemic) | CLhep predicted at 1 µM [3]: 69 mL/min/kg; Papp A→B at 10 µM [4]: 7.4 ×10⁻⁶ cm/s; CLhep predicted at 1 µM [6]: 49 mL/min/kg
10 | 1 (≈ 0.446 µg/mL) | O=C(Nc1ccc(S(=O)(=O)c2cccc(C(F)(F)F)c2)cc1)[C@@H]1C[C@H]1c1cccnc1 (racemic) | 
12 | 6 (≈ 2.49 µg/mL) | O=C(Nc1ccc(S(=O)(=O)c2cc(F)cc(F)c2)cc1)[C@@H]1C[C@H]1c1cccnc1 (racemic) | 
8 | 72 (≈ 28.5 µg/mL) | CCn1cc(S(=O)(=O)c2ccc(NC(=O)[C@@H]3C[C@H]3c3cccnc3)cc2)cn1 (racemic) | 

CLhep predicted at 1 µM [1] [mL/min/kg] | solubility at 24 h [2] [µM] | SMILES | further results
8 | 23 (≈ 10.4 µg/mL) | O=C(Nc1ccc(S(=O)(=O)c2cnn(CC(F)(F)F)c2)cc1)[C@@H]1C[C@H]1c1cccnc1 (racemic) | 
12 | 48 (≈ 19.7 µg/mL) | CCCn1cc(S(=O)(=O)c2ccc(NC(=O)[C@@H]3C[C@H]3c3cccnc3)cc2)cn1 (racemic) | CLhep predicted at 1 µM [3]: 75 mL/min/kg; Papp A→B at 10 µM [4]: 11.5 ×10⁻⁶ cm/s; CLhep predicted at 1 µM [6]: 59 mL/min/kg
3 | 155 (≈ 68.3 µg/mL) | CC(C)(O)Cn1cc(S(=O)(=O)c2ccc(NC(=O)[C@@H]3C[C@H]3c3cccnc3)cc2)cn1 (racemic) | 
 |  | CC(C)n1cc(S(=O)(=O)c2ccc(NC(=O)[C@@H]3C[C@H]3c3cccnc3)cc2)cn1 (racemic) | CLhep predicted at 1 µM [3]: 75 mL/min/kg; Papp A→B at 10 µM [4]: 10 ×10⁻⁶ cm/s; solubility [8]: 66 µM (≈ 27.1 µg/mL); CLhep predicted at 1 µM [6]: 60 mL/min/kg
19 | 30 (≈ 12.7 µg/mL) | Cc1c(S(=O)(=O)c2ccc(NC(=O)[C@@H]3C[C@H]3c3cccnc3)cc2)cnn1C(C)C (racemic) | 
 |  | O=C(Nc1ccc(S(=O)(=O)c2ccccc2)cc1)[C@@H]1C[C@H]1c1cccnc1 (racemic) | CLhep predicted at 1 µM [3]: 76 mL/min/kg; Papp A→B at 10 µM [4]: 24 ×10⁻⁶ cm/s; solubility [8]: 20 µM (≈ 7.57 µg/mL); CLhep predicted at 1 µM [6]: 63 mL/min/kg
6 | 36 (≈ 14.2 µg/mL) | Nc1ccc([C@@H]2C[C@H]2C(=O)Nc2ccc(S(=O)(=O)c3ccccc3)cc2)cn1 (racemic) | 
9 | 1 (≈ 0.378 µg/mL) | O=C(Nc1ccc(S(=O)(=O)c2ccccc2)cc1)[C@@H]1C[C@H]1c1ccncc1 (racemic) | 
13 | 88 (≈ 34.1 µg/mL) | O=C(Nc1ccc(S(=O)(=O)N2CCOCC2)cc1)[C@@H]1C[C@H]1c1cccnc1 (racemic) | 
13 | 93 (≈ 35.9 µg/mL) | O=C(Nc1ccc(S(=O)(=O)C2CCOCC2)cc1)[C@@H]1C[C@H]1c1cccnc1 (racemic) | 
15 | 15 (≈ 5.89 µg/mL) | O=C(NCc1ccc(S(=O)(=O)c2ccccc2)cc1)[C@@H]1C[C@H]1c1cccnc1 (racemic) | 
9 | 7 (≈ 2.85 µg/mL) | Nc1ccc([C@@H]2C[C@H]2C(=O)NCc2ccc(S(=O)(=O)c3ccccc3)cc2)cn1 (racemic) | 
9 | 59 (≈ 23.2 µg/mL) | O=C(NCc1ccc(S(=O)(=O)c2ccccc2)cc1)[C@@H]1C[C@H]1c1ccncc1 (racemic) | 
10 | 133 (≈ 47.5 µg/mL) | CC(C)(C)OC(=O)N1CC2(CCN(C(=O)[C@H]3C[C@@H]3c3cccnc3)C2)C1 (relative stereo) | 
11 | 15 (≈ 5.68 µg/mL) | O=C(Nc1ccc(S(=O)(=O)c2ccccc2)cc1)[C@H]1C[C@@H]1c1cccnc1 (single isomer, unassigned; enantiomer 1) | CLhep predicted at 1 µM [3]: 79 mL/min/kg; Papp A→B at 10 µM [4]: 21.2 ×10⁻⁶ cm/s; CLhep predicted at 1 µM [6]: 78 mL/min/kg
7 | 15 (≈ 5.68 µg/mL) | O=C(Nc1ccc(S(=O)(=O)c2ccccc2)cc1)[C@@H]1C[C@H]1c1cccnc1 (single isomer, unassigned; enantiomer 2) | 
15 | 2.2 (≈ 0.818 µg/mL) | N#CN=C(NCCCCCCOc1ccc(Cl)cc1)Nc1ccncc1 [CHS-828] | 
15 |  | O=C(/C=C/c1cccnc1)NCCCCC1CCN(C(=O)c2ccccc2)CC1 [DAPORINAD] | 
